Experiments:
TNBS-induced colitis = assay: TNBS model of colitis with and without broad-spectrum antibiotic or vancomycin pretreatment (Example 5); assay type: in vivo, Balb/c mice
Method: Additional experiments were carried out using the TNBS model (described supra) using a BSC in combination with an antibiotic. In these experiments, three-week-old male Balb/c mice, 24 per group (9 in the naïve control group), were treated according to Table 4.
Either vancomycin (Groups 5 and 6) or an antibiotic mixture (Groups 7 and 8) was administered to mice in their drinking water prior to receiving treatment to evaluate the effect on BSC efficacy (Groups 5-8). Mice were dosed by oral gavage with either PBS (Groups 2, 5, and 7) or BSC (Groups 6 and 8) three times per week starting on Day 7 and continuing through the end of the study (Day 35). Mice in group 4 received BSC three times per week by oral gavage starting on Day 0. On day 28, mice were anesthetized with isoflurane and received intracolonic 2% TNBS (Groups 2-8). Periodic measurements included body weight and clinical scores. On Day 35, animals were euthanized and gross pathology was evaluated. Colon samples were prepared for histopathology and scored by a pathologist blinded to treatment group and the nature of the Test Item.

DSS-induced colitis = assay type: in vivo
Method: To further examine the effect of antibiotic and a BSC on ulcerative colitis, the DSS model described supra was used with the addition of arms evaluating vancomycin as the sole antibiotic. In this experiment, three-week-old male C57B1/6 mice, 15 per group (9 in the Naïve control group), were treated according to the Table 2.
Either vancomycin (Groups 5 and 6) or an antibiotic mixture (Groups 7 and 8) was administered to mice in their drinking water prior to receiving treatment to evaluate the effect on BSC efficacy. Mice were dosed by oral gavage with either PBS (Groups 2, 5, and 7) or BSC (Groups 6 and 8) three times per week starting on Day 9 and continuing through the end of the study (Day 38). Group 4 was dosed with a BSC three times per week starting on Day 0. On days 28-32, mice were exposed to 2% DSS in their drinking water (Groups 2-8) and observed until Day 38. Periodic measurements included body weight and clinical scores. On Day 38, animals were euthanized and features of the colon were evaluated including weight, length, and gross pathology. Colon samples were prepared for histopathology and scored by a pathologist blinded to treatment group and the nature of the Test Item.

[1] = vs Negative Control (Group 2), Day 38

## CN[C@H](CC(C)C)C(=O)N[C@H]1C(=O)N[C@@H](CC(N)=O)C(=O)N[C@H]2C(=O)N[C@H]3C(=O)N[C@H](C(=O)N[C@H](C(=O)O)c4cc(O)cc(O)c4-c4cc3ccc4O)[C@H](O)c3ccc(c(Cl)c3)Oc3cc2cc(c3O[C@@H]2O[C@H](CO)[C@@H](O)[C@H](O)[C@H]2O[C@H]2C[C@](C)(N)[C@H](O)[C@H](C)O2)Oc2ccc(cc2Cl)[C@H]1O [Vancomycin, vancomycin]
TNBS-induced colitis; antibiotic pretreatment alone
  protection against weight loss: no effect
TNBS-induced colitis; following TNBS induction, Positive Control = anti-IL12
  dead or euthanized / group size: 2/24
TNBS-induced colitis; following TNBS induction, Positive Control = anti-IL12, Negative Control 33%
  Mortality: 8%
TNBS-induced colitis; vs Negative Control Group 2, BSC p=0.14
  histopathology scores: not different
TNBS-induced colitis; vs Negative Control Group 2, Positive Control = anti-IL12
  clinical scores: not statistically improved
DSS-induced colitis; compared to naïve mice
  colon pathology (gross pathology and histopathology scores): worsening in colon pathology
DSS-induced colitis; vs Negative Control
  protection against DSS-induced disease / pathology: significant protection
DSS-induced colitis; vs Negative Control (Group 2)
  clinical score: reduced clinical scores
  colon pathology (overall): overall improvement in colon pathology
  colon weight: reduced colon weight
  maximal body weight loss / body weight loss (in words): significantly reduced
DSS-induced colitis; [1]
  colon length: increased colon length
  gross pathology score: improved
  histopathology score: improved

Reference: patent US20180200308A1, “METHODS OF TREATING COLITIS” (priority 2015, published 2018)
